What was measured:
VIOTR = assay: Post-emergence herbicidal effect, greenhouse pot test; type: in vivo, Viola tricolor
Summary of the method: (§1)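 Weeds sown in sandy loam, greenhouse-grown 2–3 weeks, then sprayed at one-leaf stage with WP or EC formulations in water plus 0.5% additive at 600 l/ha. Rates 20 to 320 g/ha. Visual rating after about 3 weeks versus untreated controls (100% = plants dead, 0% = like control).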

DIGSA = assay: as above; type: in vivo, Digitaria sanguinalis; conditions: 320 g/ha, visual rating about 3 weeks after treatment; for pest or weed control at 320 g/ha: Digitaria sanguinalis, 504 h, read-out: Post-emergence effect against DIGSA
Summary of the method: as §1

ABUTH = assay: as above; type: in vivo, Abutilon theophrasti; conditions: visual rating about 3 weeks after treatment
Summary of the method: as §1

AVEFA = assay: as above; type: in vivo, Avena fatua; conditions: 320 g/ha, visual rating about 3 weeks after treatment
Summary of the method: as §1

KCHSC = assay: as above; type: in vivo; conditions: 320 g/ha
Summary of the method: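 Greenhouse plants in sandy loam, sprayed post-emergence at the one-leaf stage (2–3 weeks after sowing) with WP or EC formulations in water plus 0.5% additive at 600 l/ha. Rates 20 to 320 g/ha. Activity rated visually after about 3 weeks against untreated controls (0% like control, 100% dead).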

AMARE = assay: as above; type: in vivo, Amaranthus retroflexus; conditions: visual rating about 3 weeks after treatment
Summary of the method: as §1

POLCO = assay: as above; type: in vivo, Fallopia convolvulus
Summary of the method: as §1

ALOMY = assay: as above; type: in vivo, Alopecurus myosuroides; conditions: 320 g/ha, visual rating about 3 weeks after treatment
Summary of the method: as §1

PHBPU = assay: as above; type: in vivo, Ipomoea purpurea; conditions: for pest or weed control at 320 g/ha: Ipomoea purpurea, 504 h, read-out: Post-emergence effect against PHBPU in %
Summary of the method: as §1

TRZAS = assay: Post-emergence herbicidal effect and crop plant compatibility, greenhouse pot test; type: in vivo, Triticum aestivum; conditions: 20 g/ha, one-leaf stage, rated visually after about 3 weeks vs untreated controls
Source text: • ALOMY: Alopecurus myosuroides SETVI: Setaria viridis • AVEFA: Avena fatua POLCO: Fallopia convolvulus • AMARE: Amaranthus retroflexus ECHCG: Echinochloa crus-galli • LOLRJ: Lolium rigidum STEME: Stellaria media • VERPE: Veronica persica MATIN: Tripleurospermum inodorum • DIGSA: Digitaria sanguinalis ABUTH: Abutylon threophrasti • TRZAS: Triticum aestivum VIOTR: Viola tricolor • BRSNW: Brassica napus ZEAMX: Zea mays • PHBPU: Ipomoea purpurea GLXMA: Glycine max • ORYSA: Oryza sativa HORMU: Hordeum murinum
Seeds of monocotyledonous and dicotyledonous weeds and crop plants are placed in sandy loam in plastic or organic planting pots, covered with soil and cultivated in a greenhouse under controlled growth conditions. 2 to 3 weeks after sowing, the trial plants are treated at the one-leaf stage. The compounds of the invention, formulated in the form of wettable powders (WP) or as emulsion concentrates (EC), are then sprayed onto the green parts of the plants as aqueous suspension or emulsion with addition of 0.5% additive at a water application rate of 600 l/ha (converted). After the test plants have been kept in the greenhouse under optimum growth conditions for about 3 weeks, the activity of the preparations is rated visually in comparison to untreated controls. For example, 100% activity=the plants have died, 0% activity=like control plants.
Tables 20a to 38c below show the effects/crop compatibilities of selected compounds of the general formula (I) on various harmful plants at an application rate corresponding to 20 to 320 g/ha, which were obtained by the trial procedure specified above.

ZEAMX = assay: as above; type: in vivo, Zea mays; conditions: 20 g/ha, one-leaf stage, rated visually after about 3 weeks vs untreated controls
Summary of the method: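 Sandy loam pots, greenhouse. One-leaf stage (2–3 wk after sowing) foliar spray; WP/EC in water + 0.5% additive, 600 l/ha; 20–320 g/ha. Visual score ~3 wk, 0–100% vs untreated.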

SETVI = assay: Post-emergence herbicidal effect, greenhouse pot test; type: in vivo, Setaria viridis; conditions: for pest or weed control at 320 g/ha: Setaria viridis, 504 h, read-out: Post-emergence effect against SETVI in %
Summary of the method: as §1

ECHCG = assay: as above; type: in vivo, Echinochloa crus-galli
Summary of the method: as §1

VERPE = assay: as above; type: in vivo, Veronica persica; conditions: for pest or weed control at 80 g/ha / pest or weed control at 320 g/ha: Veronica persica, 504 h, read-out: Post-emergence effect against VERPE in %
Summary of the method: as §1

MATIN = assay: as above; type: in vivo, Tripleurospermum inodorum
Summary of the method: as §1

LOLRI = assay: as above; type: in vivo, Lolium rigidum; conditions: Lolium rigidum, 504 h, 320 g/ha, read-out: Post-emergence effect against LOLRI in %
Summary of the method: as §1

[1] = Viola tricolor, 504 h, 320 g/ha, read-out: Post-emergence effect against VIOTR in %
[2] = Abutilon theophrasti, 504 h, 320 g/ha, read-out: Post-emergence effect against ABUTH
[3] = Amaranthus retroflexus, 504 h, 320 g/ha, read-out: Post-emergence effect against AMARE
[4] = Echinochloa crus-galli, 504 h, 320 g/ha, read-out: Post-emergence effect against ECHCG in %
[5] = Tripleurospermum inodorum, 504 h, 320 g/ha, read-out: Post-emergence effect against MATIN in %

CCOC(Oc1nn(-c2ccccc2F)c(-c2ccc(F)nc2)c1Cl)C(=O)OCC(C)C(=O)OC (racemic) [Example I-54]
90%: Post-emergence effect against DIGSA (DIGSA) | Post-emergence effect against AVEFA (AVEFA) | Post-emergence effect against PHBPU in % (PHBPU; 80 g/ha) | Post-emergence effect against PHBPU in % (PHBPU; 320 g/ha) | Post-emergence effect against SETVI in % (SETVI; 320 g/ha) | Post-emergence effect against ECHCG in % (ECHCG; 80 g/ha) | Post-emergence effect against ECHCG in % (ECHCG; 320 g/ha) | Post-emergence effect against VERPE in % (VERPE; 320 g/ha) | Post-emergence effect against MATIN in % (MATIN; 80 g/ha) | Post-emergence effect against MATIN in % (MATIN; 320 g/ha)
0%: Post-emergence effect at 20 g/ha against TRZAS in % (TRZAS) | Post-emergence effect at 20 g/ha against ZEAMX in % (ZEAMX)
80%: Post-emergence effect against VIOTR in % (VIOTR; 80 g/ha) | Post-emergence effect against VIOTR in % (VIOTR; 320 g/ha) | Post-emergence effect against ABUTH (ABUTH; 320 g/ha) | Post-emergence effect against KCHSC in % (KCHSC) | Post-emergence effect against AMARE (AMARE; 320 g/ha) | Post-emergence effect against POLCO in % (POLCO; 80 g/ha) | Post-emergence effect against POLCO in % (POLCO; 320 g/ha) | Post-emergence effect against SETVI in % (SETVI; 80 g/ha) | Post-emergence effect against ECHCG (ECHCG; 20 g/ha, visual rating about 3 weeks after treatment) | Post-emergence effect against VERPE in % (VERPE; 20 g/ha) | Post-emergence effect against VERPE in % (VERPE; 80 g/ha) | Post-emergence effect against MATIN in % (MATIN; 20 g/ha)
100%: Post-emergence effect against ALOMY (ALOMY)

COC(Oc1nn(-c2ccccc2F)c(-c2ccc(F)nc2)c1Br)C(=O)O (stereo not shown) [Example I-25]
80%: pest or weed control at 320 g/ha (VIOTR; [1]) | pest or weed control at 320 g/ha (ABUTH; [2]) | pest or weed control at 80 g/ha (AMARE; Amaranthus retroflexus, 504 h, 80 g/ha, read-out: Post-emergence effect against AMARE) | pest or weed control at 320 g/ha (ECHCG; [4]) | pest or weed control at 80 g/ha (VERPE; 80 g/ha) | pest or weed control at 320 g/ha (MATIN; [5])
10%: Post-emergence effect at 20 g/ha against TRZAS in % (TRZAS)
90%: pest or weed control at 320 g/ha (DIGSA) | pest or weed control at 320 g/ha (AMARE; [3]) | pest or weed control at 320 g/ha (LOLRI) | pest or weed control at 320 g/ha (PHBPU; 320 g/ha) | pest or weed control at 320 g/ha (SETVI; 320 g/ha) | pest or weed control at 320 g/ha (VERPE; 320 g/ha)
20%: Post-emergence effect at 20 g/ha against ZEAMX in % (ZEAMX)

COC(Oc1nn(-c2cc(F)ccc2F)c(-c2cncc(F)c2)c1Br)C(=O)O (stereo not shown) [Example I-32]
90%: pest or weed control at 80 g/ha (VIOTR; Viola tricolor, 504 h, 80 g/ha, read-out: Post-emergence effect against VIOTR in %) | pest or weed control at 320 g/ha (VIOTR; [1]) | pest or weed control at 320 g/ha (DIGSA) | pest or weed control at 320 g/ha (ABUTH; [2]) | pest or weed control at 320 g/ha (AVEFA; Avena fatua, 504 h, read-out: Post-emergence effect against AVEFA) | pest or weed control at 320 g/ha (LOLRI) | pest or weed control at 320 g/ha (PHBPU; 320 g/ha) | pest or weed control at 320 g/ha (SETVI; 320 g/ha) | pest or weed control at 80 g/ha (ECHCG; Echinochloa crus-galli, 504 h, 80 g/ha, read-out: Post-emergence effect against ECHCG in %) | pest or weed control at 320 g/ha (ECHCG; [4]) | pest or weed control at 80 g/ha (VERPE; 80 g/ha) | pest or weed control at 320 g/ha (VERPE; 320 g/ha) | pest or weed control at 80 g/ha (MATIN; Tripleurospermum inodorum, 504 h, 80 g/ha, read-out: Post-emergence effect against MATIN in %) | pest or weed control at 320 g/ha (MATIN; [5])
80%: pest or weed control at 80 g/ha (ABUTH; Abutilon theophrasti, 504 h, 80 g/ha, read-out: Post-emergence effect against ABUTH) | pest or weed control at 320 g/ha (AMARE; [3]) | pest or weed control at 320 g/ha (POLCO; Fallopia convolvulus, 504 h, 320 g/ha, read-out: Post-emergence effect against POLCO in %)
10%: percent crop injury (phytotoxicity) to wheat, post-emergence at 20 g/ha (TRZAS; Triticum aestivum, 504 h, read-out: Post-emergence effect at 20 g/ha against TRZAS in %) | plant injury at 20 g/ha (ZEAMX; Zea mays, 504 h, read-out: Post-emergence effect at 20 g/ha against ZEAMX in %)
